PubChem BioAssay (NCI)
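Protocol summary: plate cells (96-well), add compound at 5 concentrations, incubate 48 h, interpolate endpoints linearly. TGI: total growth inhibition.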

What was measured:
Test in all cases: NCI tumour cell line growth inhibition, 48 h
[1] = system: DMS 273 small cell lung
[2] = system: COLO 205 colon
[3] = system: NCI-H522 lung
[4] = system: 786-0 renal
[5] = system: OVCAR-5 ovarian
[6] = system: NCI-H460 lung
[7] = system: MOLT-4 leukemia
[8] = system: HOP-92 NSCLC
[9] = system: DMS 114 small cell lung
[10] = system: LOX IMVI melanoma
[11] = system: UACC-257 melanoma
[12] = system: SF-295 CNS
[13] = system: KM12 colon
[14] = system: SN12C renal
[15] = system: HCC-2998 colon
[16] = system: SF-539 CNS
[17] = system: SR leukemia
[18] = system: SNB-78 CNS
[19] = system: SK-MEL-2 melanoma
[20] = system: SNB-19 CNS
[21] = system: OVCAR-8 ovarian
[22] = system: HL-60(TB) leukemia
[23] = system: M19-MEL melanoma
[24] = system: NCI-H226 lung
[25] = system: NCI-H23 lung
[26] = system: A549 NSCLC
[27] = system: HCT-15 colon
[28] = system: RPMI-8226 leukemia
[29] = system: LXFL 529 NSCLC
[30] = system: A498 renal
[31] = system: CAKI-1 renal
[32] = system: K-562 leukemia
[33] = system: HT29 colon
[34] = system: SK-MEL-28 melanoma
[35] = system: TK-10 renal
[36] = system: RXF-631 renal
[37] = system: U251 CNS
[38] = system: KM20L2 colon
[39] = system: HCT-116 colon
[40] = system: CCRF-CEM leukemia
[41] = system: SW-620 colon
[42] = system: MALME-3M melanoma
[43] = system: UO-31 renal
[44] = system: XF 498 CNS
[45] = system: EKVX NSCLC
[46] = system: HOP-18 NSCLC
[47] = system: SK-MEL-5 melanoma
[48] = system: OVCAR-3 ovarian
[49] = system: M14 melanoma
[50] = system: OVCAR-4 ovarian
[51] = system: DLD-1 colon
[52] = system: HOP-62 NSCLC
[53] = system: SNB-75 CNS
[54] = system: RXF 393 renal
[55] = system: SK-OV-3 ovarian
[56] = system: IGROV1 ovarian
[57] = system: ACHN renal
[58] = system: UACC-62 melanoma

SMILES: CC(C)(C)NC(=O)C12C3C4C1C1C2C3C41I (centres undefined)
- TGI [1]: > 100 µM
- TGI [2]: > 100 µM
- TGI [3]: > 100 µM
- TGI [4]: > 100 µM
- TGI [5]: > 100 µM
- TGI [6]: > 100 µM
- TGI [7]: > 100 µM
- TGI [8]: > 100 µM
- TGI [9]: > 100 µM
- TGI [10]: > 100 µM
- TGI [11]: > 100 µM
- TGI [12]: > 100 µM
- TGI [13]: > 100 µM
- TGI [14]: > 100 µM
- TGI [15]: > 100 µM
- TGI [16]: > 100 µM
- TGI [17]: > 100 µM
- TGI [18]: > 100 µM
- TGI [19]: > 100 µM
- TGI [20]: > 100 µM
- TGI [21]: > 100 µM
- TGI [22]: > 100 µM
- TGI [23]: > 100 µM
- TGI [24]: > 100 µM
- TGI [25]: > 100 µM
- TGI [26]: > 100 µM
- TGI [27]: > 100 µM
- TGI [28]: > 100 µM
- TGI [29]: > 100 µM
- TGI [30]: > 100 µM
- TGI [31]: > 100 µM
- TGI [32]: > 100 µM
- TGI [33]: > 100 µM
- TGI [34]: > 100 µM
- TGI [35]: > 100 µM
- TGI [36]: > 100 µM
- TGI [37]: > 100 µM
- TGI [38]: > 100 µM
- TGI [39]: > 100 µM
- TGI [40]: > 100 µM
- TGI [41]: > 100 µM
- TGI [42]: > 100 µM
- TGI [43]: > 100 µM
- TGI [44]: > 100 µM

SMILES: c1ccc(C[P+]2(c3ccccc3)CCCCC2)cc1
- TGI [1]: > 100 µM
- TGI [2]: > 100 µM
- TGI [3]: > 100 µM
- TGI [4]: > 100 µM
- TGI [5]: > 100 µM
- TGI [45]: > 100 µM
- TGI [46]: > 100 µM
- TGI [6]: > 100 µM
- TGI [7]: > 100 µM
- TGI [9]: > 100 µM
- TGI [47]: 71.9 µM
- TGI [10]: > 100 µM
- TGI [48]: > 100 µM
- TGI [11]: > 100 µM
- TGI [12]: > 100 µM
- TGI [49]: > 100 µM
- TGI [13]: > 100 µM
- TGI [14]: > 100 µM
- TGI [15]: > 100 µM
- TGI [16]: > 100 µM
- TGI [17]: > 100 µM
- TGI [50]: > 100 µM
- TGI [18]: > 100 µM
- TGI [19]: > 100 µM
- TGI [51]: > 100 µM
- TGI [20]: > 100 µM
- TGI [21]: > 100 µM
- TGI [52]: > 100 µM
- TGI [22]: > 100 µM
- TGI [23]: > 100 µM
- TGI [24]: > 100 µM
- TGI [53]: > 100 µM
- TGI [54]: > 100 µM
- TGI [25]: > 100 µM
- TGI [26]: > 100 µM
- TGI [55]: > 100 µM
- TGI [27]: > 100 µM
- TGI [28]: > 100 µM
- TGI [29]: > 100 µM
- TGI [30]: > 100 µM
- TGI [56]: > 100 µM
- TGI [32]: > 100 µM
- TGI [33]: > 100 µM
- TGI [34]: > 100 µM
- TGI [35]: > 100 µM
- TGI [57]: > 100 µM
- TGI [37]: > 100 µM
- TGI [38]: > 100 µM
- TGI [58]: > 100 µM
- TGI [39]: > 100 µM
- TGI [40]: > 100 µM
- TGI [41]: > 100 µM
- TGI [42]: > 100 µM
- TGI [43]: > 100 µM
- TGI [44]: 98.2 µM
